Assay results from ChEMBL document CHEMBL1201862, “PubChem BioAssay data set” (2004).
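96-well plates; 48 h exposure; 5 concentrations. Endpoints by linear interpolation between flanking doses. Not reached: highest tested concentration assigned. Here, GI50 denotes the concentration required for 50% inhibition of growth.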 Active and inactive are the calls of the source. No stated cut-off is given here; in the data, active = GI50 up to about 1.1 µM and inactive = higher.

Key:
Assay in all cases: NCI anticancer screen, dose series, 48 h
[1] = system: 786-0
[2] = system: A498
[3] = system: A549
[4] = system: ACHN
[5] = system: CCRF-CEM
[6] = system: COLO 205
[7] = system: DLD-1
[8] = system: DMS-114
[9] = system: DMS-273
[10] = system: EKVX
[11] = system: HCC 2998
[12] = system: HCT-116
[13] = system: HCT-15
[14] = system: HL-60
[15] = system: HOP-18
[16] = system: HOP-62
[17] = system: HT-29
[18] = system: IGROV-1
[19] = system: K562
[20] = system: KM-20L2
[21] = system: KM12
[22] = system: LOX IMVI
[23] = system: LXFL 529
[24] = system: M14
[25] = system: M19-MEL
[26] = system: MOLT-4
[27] = system: Malme-3M
[28] = system: NCI-H226
[29] = system: NCI-H23
[30] = system: NCI-H460
[31] = system: NCI-H522
[32] = system: OVCAR-3
[33] = system: OVCAR-5
[34] = system: OVCAR-8
[35] = system: RPMI-8226
[36] = system: RXF 393
[37] = system: SF-295
[38] = system: SF-539
[39] = system: SK-MEL-28
[40] = system: SK-MEL-2
[41] = system: SK-MEL-5
[42] = system: SK-OV-3
[43] = system: SN12C
[44] = system: SNB-19
[45] = system: SNB-75
[46] = system: SNB-78
[47] = system: SR
[48] = system: SW-620
[49] = system: TK-10
[50] = system: U-251
[51] = system: UACC-257
[52] = system: UACC-62
[53] = system: UO-31
[54] = system: XF498

## C[C@H]1CC[P+](C)(c2ccccc2)C1 (some centres undefined)
[1]
  GI50: > 100 µM (inactive)
[2]
  GI50: > 100 µM (inactive)
[3]
  GI50: > 100 µM (inactive)
[4]
  GI50: > 100 µM (inactive)
[5]
  GI50: > 100 µM (inactive)
[6]
  GI50: > 100 µM (inactive)
[7]
  GI50: > 100 µM (inactive)
[8]
  GI50: > 100 µM (inactive)
[9]
  GI50: > 100 µM (inactive)
[10]
  GI50: > 100 µM (inactive)
[11]
  GI50: > 100 µM (inactive)
[12]
  GI50: > 100 µM (inactive)
[13]
  GI50: > 100 µM
[14]
  GI50: > 100 µM (inactive)
[15]
  GI50: > 100 µM (inactive)
[16]
  GI50: > 100 µM (inactive)
[17]
  GI50: > 100 µM (inactive)
[18]
  GI50: > 100 µM (inactive)
[19]
  GI50: > 100 µM (inactive)
[20]
  GI50: > 100 µM (inactive)
[21]
  GI50: > 100 µM (inactive)
[22]
  GI50: > 100 µM (inactive)
[23]
  GI50: > 100 µM (inactive)
[24]
  GI50: > 100 µM (inactive)
[25]
  GI50: > 100 µM (inactive)
[26]
  GI50: > 100 µM (inactive)
[27]
  GI50: > 100 µM (inactive)
[28]
  GI50: > 100 µM (inactive)
[29]
  GI50: > 100 µM (inactive)
[30]
  GI50: > 100 µM (inactive)
[31]
  GI50: > 100 µM (inactive)
[32]
  GI50: > 100 µM (inactive)
[33]
  GI50: > 100 µM (inactive)
[34]
  GI50: > 100 µM (inactive)
[35]
  GI50: > 100 µM (inactive)
[36]
  GI50: > 100 µM (inactive)
[37]
  GI50: > 100 µM (inactive)
[38]
  GI50: > 100 µM (inactive)
[39]
  GI50: > 100 µM (inactive)
[40]
  GI50: > 100 µM (inactive)
[41]
  GI50: > 100 µM (inactive)
[42]
  GI50: > 100 µM (inactive)
[43]
  GI50: > 100 µM (inactive)
[44]
  GI50: > 100 µM (inactive)
[45]
  GI50: > 100 µM (inactive)
[46]
  GI50: > 100 µM (inactive)
[47]
  GI50: > 100 µM (inactive)
[48]
  GI50: > 100 µM (inactive)
[49]
  GI50: > 100 µM (inactive)
[50]
  GI50: > 100 µM (inactive)
[51]
  GI50: > 100 µM (inactive)
[52]
  GI50: > 100 µM (inactive)
[53]
  GI50: > 100 µM (inactive)
[54]
  GI50: < 0.01 µM (active)
